# Data reported in patent US10093683B2, “Factor XIa inhibitors” (Merck Sharp & Dohme Corp., priority 2014, dated 2018).
# Structures can show the parent of a compound that is named as a salt.
# Target: human Factor XIa (Homo sapiens (Human), UniProt P03951)
# Assay: Factor XIa Assay
# Type: biochemical
# Conditions: read-out: FXIa Ki
# How it was run: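 Ki derived from the dependence of Vo/Vi on inhibitor concentration under a competitive-inhibition model, after pre-equilibration of enzyme and inhibitor. Reaction: 40 pM human FXIa, 100 μM Z-Gly-Pro-Arg-AFC, HEPES 50 mM pH 7.4 with NaCl, CaCl2 and PEG 8000; run at room temperature or 37° C.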
# Sequence of human Factor XIa (P03951 388-625): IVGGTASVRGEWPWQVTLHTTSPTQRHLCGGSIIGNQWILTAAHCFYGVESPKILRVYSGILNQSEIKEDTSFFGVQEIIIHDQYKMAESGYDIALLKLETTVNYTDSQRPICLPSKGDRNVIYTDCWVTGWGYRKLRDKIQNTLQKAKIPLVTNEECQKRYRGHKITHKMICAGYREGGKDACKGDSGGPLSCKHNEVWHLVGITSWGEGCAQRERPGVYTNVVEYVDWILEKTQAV
# Sequence of human Factor XIa (P03951 19-387 partner): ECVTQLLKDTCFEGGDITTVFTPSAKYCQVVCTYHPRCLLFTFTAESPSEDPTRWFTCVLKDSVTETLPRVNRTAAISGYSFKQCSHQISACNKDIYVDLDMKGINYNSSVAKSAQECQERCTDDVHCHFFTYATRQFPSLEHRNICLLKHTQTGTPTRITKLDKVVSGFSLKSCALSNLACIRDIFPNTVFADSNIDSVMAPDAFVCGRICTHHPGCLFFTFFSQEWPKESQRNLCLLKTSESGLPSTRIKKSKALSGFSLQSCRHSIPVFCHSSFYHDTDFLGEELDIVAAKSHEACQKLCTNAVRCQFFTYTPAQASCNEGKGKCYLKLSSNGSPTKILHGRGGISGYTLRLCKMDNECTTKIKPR
row,Ki [nM],Structure (SMILES)
1,2520,"O=C1Nc2ccc(Cl)cc2C2(CCN(C(=O)[C@H](Cc3ccccc3)NC(=O)c3ccccc3-n3cccn3)C2)O1 (stereo partly drawn) [Example 154, N-((2S)-1-(6-chloro-2-oxo-1,2-dihydrospiro[benzo[d][1,3]oxazine-4,3′-pyrrolidin]-1′-yl)-1-oxo-3-phenylpropan-2-yl)-2-(1H-pyrazol-1-yl)benzamide]"
2,169,O=C1Nc2ccc(Cl)cc2C2(CCN(C(=O)[C@H](Cc3ccccc3)NC(=O)c3ccnc(O)c3)C2)O1 (stereo partly shown) [Example 155]
3,2150,O=C1Nc2ccc(Cl)cc2C2(CCN(C(=O)[C@H](Cc3ccccc3)NC(=O)c3ccon3)C2)O1 (stereo partly shown) [Example 156]
4,63.2,"CS(=O)(=O)Nc1ccc(C(=O)N[C@@H](Cc2ccccc2)C(=O)N2CCC3(C2)OC(=O)Nc2ccc(Cl)cc23)cc1 (stereo partly drawn) [Example 163, N-((2S)-1-(6-chloro-2-oxo-1,2-dihydrospiro[benzo[d][1,3]oxazine-4,3′-pyrrolidin]-1′-yl)-1-oxo-3-phenylpropan-2-yl)-4-(methylsulfonamido)benzamide]"
5,184,COC(=O)Nc1ccc(C(=O)N[C@@H](Cc2ccccc2)C(=O)N2CCC3(C2)OC(=O)Nc2ccc(Cl)cc23)nc1 (stereo partly shown) [Example 166]
6,774,"O=C1Nc2ccc(Cl)cc2C2(CCN(C(=O)[C@H](Cc3ccccc3)NC(=O)c3cccc(N4CCNC4=O)c3)C2)O1 (stereo partly drawn) [Example 169, N-((2S)-1-(6-chloro-2-oxo-1,2-dihydrospiro[benzo[d][1,3]oxazine-4,3′-pyrrolidin]-1′-yl)-1-oxo-3-phenylpropan-2-yl)-3-(2-oxoimidazolidin-1-yl)benzamide]"
7,261,O=C1Cc2ccc(C(=O)N[C@@H](Cc3ccccc3)C(=O)N3CCC4(C3)OC(=O)Nc3ccc(Cl)cc34)cc2N1 (stereo partly shown) [Example 174]
8,212,Nc1nc(C(=O)N[C@@H](Cc2ccccc2)C(=O)N2CCC3(C2)OC(=O)Nc2ccc(Cl)cc23)cs1 (stereo partly shown) [Example 175]
9,559,O=C1Nc2ccc(Cl)cc2C2(CCN(C(=O)[C@H](Cc3ccccc3)NC(=O)c3cc(O)ncn3)C2)O1 (stereo partly shown) [Example 177]
10,251,"O=C1Nc2ccc(Cl)cc2C2(CCN(C(=O)[C@H](Cc3ccccc3)NC(=O)c3ccc(O)c(F)c3)C2)O1 (stereo partly drawn) [Example 178, N-((2S)-1-(6-chloro-2-oxo-1,2-dihydrospiro[benzo[d][1,3]oxazine-4,3′-pyrrolidin]-1′-yl)-1-oxo-3-phenylpropan-2-yl)-3-fluoro-4-hydroxybenzamide]"
11,454,"N=C(N)Nc1ccc(C(=O)N[C@@H](Cc2ccccc2)C(=O)N2CCC3(C2)OC(=O)Nc2ccc(Cl)cc23)cc1 (stereo partly drawn) [Example 179, N-((2S)-1-(6-chloro-2-oxo-1,2-dihydrospiro[benzo[d][1,3]oxazine-4,3′-pyrrolidin]-1′-yl)-1-oxo-3-phenylpropan-2-yl)-4-guanidinobenzamide]"
12,96,Nc1n[nH]c2ccc(C(=O)N[C@@H](Cc3ccccc3)C(=O)N3CCC4(C3)OC(=O)Nc3ccc(Cl)cc34)cc12 (stereo partly shown) [Example 185]
13,151,O=C1CCCc2cc(C(=O)N[C@@H](Cc3ccccc3)C(=O)N3CCC4(C3)OC(=O)Nc3ccc(Cl)cc34)ccc2N1 (stereo partly shown) [Example 187]
14,76.7,"O=C(Nc1ccc(C(=O)N[C@@H](Cc2ccccc2)C(=O)N2CCC3(C2)OC(=O)Nc2ccc(Cl)cc23)cc1)OCCN1CCNCC1 (stereo partly drawn) [Example 190, 2-(Piperazin-1-yl)ethyl (4-(((2S)-1-(6-chloro-2-oxo-1,2-dihydrospiro[benzo[d][1,3]oxazine-4,3′-pyrrolidin]-1′-yl)-1-oxo-3-phenylpropan-2-yl)carbamoyl)phenyl)carbamate 2 trifluoroacetic acid salt]"
15,91.3,"COC(=O)Nc1ccc(C(=O)N[C@@H](CC2CC2)C(=O)N2CCC[C@@]3(C2)OC(=O)Nc2ccc(Cl)cc23)c(Cl)c1 [Example 201, methyl (3-chloro-4-(((S)-1-((R)-6-chloro-2-oxo-1,2-dihydrospiro[benzo[d][1,3]oxazine-4,3′-piperidin]-1′-yl)-3-cyclopropyl-1-oxopropan-2-yl)carbamoyl)phenyl)carbamate]"

# More lines, now with the values behind:
row,Structure (SMILES),Ki [nM]
1,CS(=O)(=O)c1ccc(C(=O)N[C@@H](Cc2ccccc2)C(=O)N2CCC3(C2)OC(=O)Nc2ccc(Cl)cc23)nc1 (stereo partly shown) [Example 148],1870
2,"N#Cc1ccc(C(=O)N[C@@H](Cc2ccccc2)C(=O)N2CCC3(C2)OC(=O)Nc2ccc(Cl)cc23)cc1 (stereo partly drawn) [Example 150, N-((2S)-1-(6-chloro-2-oxo-1,2-dihydrospiro[benzo[d][1,3]oxazine-4,3′-pyrrolidin]-1′-yl)-1-oxo-3-phenylpropan-2-yl)-4-cyanobenzamide]",430
3,"O=C1Nc2ccc(Cl)cc2C2(CCN(C(=O)[C@H](Cc3ccccc3)NC(=O)c3ccc(-c4nnn[nH]4)cc3)C2)O1 (stereo partly drawn) [Example 151, N-((2S)-1-(6-chloro-2-oxo-1,2-dihydrospiro[benzo[d][1,3]oxazine-4,3′-pyrrolidin]-1′-yl)-1-oxo-3-phenylpropan-2-yl)-4-(1H-tetrazol-5-yl)benzamide]",1780
4,N#Cc1ccc(C(=O)N[C@@H](Cc2ccccc2)C(=O)N2CCC3(C2)OC(=O)Nc2ccc(Cl)cc23)cn1 (stereo partly shown) [Example 152],1020
5,O=C1Nc2ccc(Cl)cc2C2(CCN(C(=O)[C@H](Cc3ccccc3)NC(=O)c3ccc4[nH]ccc4n3)C2)O1 (stereo partly shown) [Example 153],488
6,O=C1Nc2ccc(Cl)cc2C2(CCN(C(=O)[C@H](Cc3ccccc3)NC(=O)C3CCC(CO)CC3)C2)O1 (stereo partly shown) [Example 157],3350
7,O=C1Nc2ccc(Cl)cc2C2(CCN(C(=O)[C@H](Cc3ccccc3)NC(=O)c3ccc(CO)nc3)C2)O1 (stereo partly shown) [Example 158],752
8,O=C1Nc2ccc(Cl)cc2C2(CCN(C(=O)[C@H](Cc3ccccc3)NC(=O)c3ccc(-n4ccnc4)nc3)C2)O1 (stereo partly shown) [Example 159],743
9,"O=C1Nc2ccc(Cl)cc2C2(CCN(C(=O)[C@H](Cc3ccccc3)NC(=O)c3ccc(C4(C(=O)O)CC4)cc3)C2)O1 (stereo partly drawn) [Example 160, 1-(4-(((2S)-1-(6-chloro-2-oxo-1,2-dihydrospiro[benzo[d][1,3]oxazine-4,3′-pyrrolidin]-1′-yl)-1-oxo-3-phenylpropan-2-yl)carbamoyl)phenyl)cyclopropanecarboxylic acid]",5000
10,O=C1Nc2ccc(Cl)cc2C2(CCN(C(=O)[C@H](Cc3ccccc3)NC(=O)C3(c4ccc(C(=O)O)cc4)CC3)C2)O1 (stereo partly shown) [Example 161],4490
11,"O=C1Nc2ccc(Cl)cc2C2(CCN(C(=O)[C@H](Cc3ccccc3)NC(=O)c3ccc(NC(=O)C(F)(F)F)cc3)C2)O1 (stereo partly drawn) [Example 162, N-((2S)-1-(6-chloro-2-oxo-1,2-dihydrospiro[benzo[d][1,3]oxazine-4,3′-pyrrolidin]-1′-yl)-1-oxo-3-phenylpropan-2-yl)-4-(2,2,2-trifluoroacetamido)benzamide]",594
12,O=C1Nc2ccc(Cl)cc2C2(CCN(C(=O)[C@H](Cc3ccccc3)NC(=O)c3cnc4[nH]c(=O)oc4c3)C2)O1 (stereo partly shown) [Example 167],4160
13,CC(=O)Nc1cc(C(=O)N[C@@H](Cc2ccccc2)C(=O)N2CCC3(C2)OC(=O)Nc2ccc(Cl)cc23)ccn1 (stereo partly shown) [Example 168],576
14,Cc1nc(N)sc1C(=O)N[C@@H](Cc1ccccc1)C(=O)N1CCC2(C1)OC(=O)Nc1ccc(Cl)cc12 (stereo partly shown) [Example 170],508
15,O=C1Nc2ccc(Cl)cc2C2(CCN(C(=O)[C@H](Cc3ccccc3)NC(=O)c3ccc4c(c3)C(=O)NC4)C2)O1 (stereo partly shown) [Example 172],328
16,"C[C@@H]1NC(=O)O[C@H]1c1cccc(C(=O)N[C@@H](Cc2ccccc2)C(=O)N2CCC3(C2)OC(=O)Nc2ccc(Cl)cc23)c1 (stereo partly drawn) [Example 173, N-((2S)-1-(6-chloro-2-oxo-1,2-dihydrospiro[benzo[d][1,3]oxazine-4,3′-pyrrolidin]-1′-yl)-1-oxo-3-phenylpropan-2-yl)-3-((4S,5S)-4-methyl-2-oxooxazolidin-5-yl)benzamide]",385
17,O=C1Nc2ccc(Cl)cc2C2(CCN(C(=O)[C@H](Cc3ccccc3)NC(=O)c3ccc4[nH]cnc4c3)C2)O1 (stereo partly shown) [Example 176],59.8
18,Nc1nc2cc(C(=O)N[C@@H](Cc3ccccc3)C(=O)N3CCC4(C3)OC(=O)Nc3ccc(Cl)cc34)ccc2[nH]1 (stereo partly shown) [Example 180],56.7
19,O=C1Nc2ccc(Cl)cc2C2(CCN(C(=O)[C@H](Cc3ccccc3)NC(=O)c3ccc4cn[nH]c4c3)C2)O1 (stereo partly shown) [Example 182],137
20,O=C1Nc2ccc(Cl)cc2C2(CCN(C(=O)[C@H](Cc3ccccc3)NC(=O)c3ccc4oc(=O)[nH]c4c3)C2)O1 (stereo partly shown) [Example 183],86.9
21,O=C1Nc2ccc(Cl)cc2C2(CCN(C(=O)[C@H](Cc3ccccc3)NC(=O)c3ccc4c(c3)S(=O)(=O)NC4=O)C2)O1 (stereo partly shown) [Example 184],5000
22,COCCOC(=O)Nc1ccc(C(=O)N[C@@H](Cc2ccccc2)C(=O)N2CCC3(C2)OC(=O)Nc2ccc(Cl)cc23)cn1 (stereo partly shown) [Example 186],166
23,"O=C1C[S+]([O-])c2cc(C(=O)N[C@@H](Cc3ccccc3)C(=O)N3CCC4(C3)OC(=O)Nc3ccc(Cl)cc34)ccc2N1 (stereo partly drawn) [Example 192, N-((2S)-1-(6-chloro-2-oxo-1,2-dihydrospiro[benzo[d][1,3]oxazine-4,3′-pyrrolidine]-1′-yl)-1-oxo-3-phenylpropan-2-yl)-3-oxo-3,4-dihydro-2H-benzo[b][1,4]thiazine-7-carboxamide 1-oxide]",99.7
24,"O=C1CS(=O)(=O)c2cc(C(=O)N[C@@H](Cc3ccccc3)C(=O)N3CCC4(C3)OC(=O)Nc3ccc(Cl)cc34)ccc2N1 (stereo partly drawn) [Example 193, N-((2S)-1-(6-chloro-2-oxo-1,2-dihydrospiro[benzo[d][1,3]oxazine-4,3′-pyrrolidine]-1′-yl)-1-oxo-3-phenylpropan-2-yl)-3-oxo-3,4-dihydro-2H-benzo[b][1,4]thiazine-7-carboxamide 1,1-dioxide]",145
25,"COC(=O)Nc1ccc(C(=O)N[C@@H](Cc2ccccc2)C(=O)N2CCC3(C2)OC(=O)Nc2ccc(Cl)cc23)s1 (stereo partly drawn) [Example 196, Methyl (5-(((2S)-1-(6-chloro-2-oxo-1,2-dihydrospiro[benzo[d][1,3]oxazine-4,3′-pyrrolidin]-1′-yl)-1-oxo-3-phenylpropan-2-yl)carbamoyl)thiophen-2-yl)carbamate]",63.4
